According to patent US10010624B2, “Pyrrolobenzodiazepine-antibody conjugates” (MEDIMMUNE LIMITED, priority 2013, dated 2018):

System: K562 human chronic myeloid leukaemia cells
Experiment: K562 assay (MTT cytotoxicity of released compounds)
Format: cell-based
Conditions: drug incubation 1 hour or 96 hours (not specified which), MTT readout, dose reducing optical density to 50% of control
Protocol: K562 human chronic myeloid leukaemia cells were maintained in RPM1 1640 medium supplemented with 10% fetal calf serum and 2 mM glutamine at 37° C. in a humidified atmosphere containing 5% CO2 and were incubated with a specified dose of drug for 1 hour or 96 hours at 37° C. in the dark. The incubation was terminated by centrifugation (5 min, 300 g) and the cells were washed once with drug-free medium. Following the appropriate drug treatment, the cells were transferred to 96-well microtiter plates (10^4 cells per well, 8 wells per sample). Plates were then kept in the dark at 37° C. in a humidified atmosphere containing 5% CO2. The assay is based on the ability of viable cells to reduce a yellow soluble tetrazolium salt, 3-(4,5-dimethylthiazol-2-yl)-2,5-diphenyl-2H-tetrazolium bromide (MTT, Aldrich-Sigma), to an insoluble purple formazan precipitate. Following incubation of the plates for 4 days (to allow control cells to increase in number by approximately 10 fold), 20 μL of MTT solution (5 mg/mL in phosphate-buffered saline) was added to each well and the plates further incubated for 5 h. The plates were then centrifuged for 5 min at 300 g and the bulk of the medium pipetted from the cell pellet leaving 10-20 μL per well. […] The optical density was then read at a wavelength of 550 nm on a Titertek Multiscan ELISA plate reader, and a dose-response curve was constructed. […]

## COc1cc2c(cc1OCCCCCOc1cc3c(cc1OC)C(=O)N1C=C(C)C[C@H]1C=N3)N=C[C@@H]1CC(C)=CN1C2=O [Compound RelC]
  IC50: 0.425 nM
